Results reported in patent publication US12428396B2, “Fused pyridine ring derivative, preparation method therefor, and pharmaceutical use thereof” (priority 2019, dated 2025).
pIC50: −log10 of the molar value.

Tests used:
[1] = molecular target: T1, HIV-1 capsid protein (Human immunodeficiency virus type 1 group M subtype B, UniProt P12493); assay: In vitro polymerization of HIV-1 capsid protein (His-CA/GST-CA, Eu cryptate/XL665 energy transfer); type: biochemical, HIV-1 NL4-3; conditions: for Imax: 37° C., 2 h incubation
T1 construct: made in house; host or cells: E. coli (pET30 vector)
Text: • 1. MAb Anti GST-Eu cryptate (Cisbio) • 2. MAb Anti 6HIS-XL665 (Cisbio) • 3. His tag HIV-1 capsid protein (hereinafter referred to as His-CA) • 4. GST tag HIV-1 capsid protein (hereinafter referred to as GST-CA) • 5. 384-well unbound surface microplate, white (Corning) • 6. Microplate reader (BMG)
The HIV-1 capsid proteins aggregate spontaneously in high-salt solutions. Capsid protein sequences derived from HIV-1 NL4-3 strains (GeneBank AF324493.2) were separately tagged with 6His tag and GST tag sequences at the C-terminus, cloned into pET30 vectors, and expressed and separately tagged for expression in E. coli system and purified. His-CA and GST-CA were mixed at high-salt concentrations, and the level of polymerization of capsid proteins was detected using GST antibody labeled with Eu3+-Cryptate (energy donor) and His antibody labeled with XL665 (energy acceptor). Since the excitation spectrum of Eu3+-Cryptate overlapped with the excitation spectrum of XL665, when the capsid proteins with these two tags formed a poly complex, the energy donor and the energy acceptor could be drawn to a sufficiently close distance, the energy donor released part of the captured energy under the excitation of an external light source (such as a xenon lamp or a laser), with the emission wavelength being 620 nM, part of the resonance was transferred to the energy acceptor to excite the energy acceptor, with the emission wavelength being 665 nM, and an optical signal was generated, the signal intensity of which was in direct proportion to the degree of polymerization of the tag proteins.
His-CA was diluted to 2 μM in a clean tube with protein diluent (50 mM Tris-HCl, pH 8.0, 50 mM NaCl, 0.4 mM MgCl2, 0.05% Triton X-100, 2% glycerol) while MAb Anti 6HIS-XL665 at a final concentration of 260 nM was added; GST-CA was diluted to 20 nM with protein diluent in another clean tube while MAb Anti GST-Eu cryptate at a final concentration of 3.33 nM was added and incubated on ice for half an hour. Compounds were first formulated into a concentration of 20 mM with DMSO, then diluted to a first concentration of 2 mM with DMSO and serially 5-fold diluted to the 8th concentration. Control wells were set and added with DMSO, and serially-diluted compounds were then 20-fold diluted with protein diluent to 10-fold working concentrations. Preparation of capsid protein polymerization liquid at 2-fold concentration: 50 mM Tris-HCl, pH 8.0, 1 M NaCl, 800 mM KF; to a pre-cooled white round-bottomed 384-well plate were added 4 uL of His-CA-His antibody mixture, 4 uL of GST-CA-GST antibody mixture, 2 uL of the compounds at 10-fold concentration and 10 uL of capsid protein polymerization reaction liquid at 2-fold concentration, the plate was sealed with a light-shielding sealing plate membrane after uniformly mixing, and the reaction plate was placed in a 37° C. incubator for incubation for 2 h. After incubation, the samples were excited with an excitation light at 337 nM, and signal values at 620 nM and 665 nM were collected for detection, wherein Ratio values=(665 nM/620 nM signal)×10000 was calculated according to the signal values. IC50 values for compounds were calculated using Graphpad Prism software based on each concentration of the compounds and the corresponding Ratio values.

[2] = Thermodynamic stability test of atropisomerism (LC-MS); type: physicochemical
Experimental: Agilent 1200 DAD model LC-MS; column: waters sunfire C18, 4.6×75 mm, 3.5 μm; mobile phase: water (0.1% trifluoroacetic acid):acetonitrile (0.1% trifluoroacetic acid).
The compounds of Examples 1-1a, 1-1b were atropisomers of each other and had different retention times in the LC-MS spectra, and the tautomerism of the atropisomers could be detected by LC-MS.
Compound 1-1a (1.5 mg) was dissolved in acetonitrile (1.0 mL), and the reaction solution was heated at 40° C. for 1.0 h, and the change in purity of compound 1-1a was detected by LC-MS. Compound 1-1a (1.5 mg) was dissolved in dimethyl sulfoxide (1.0 mL), and the reaction solution was heated at 120° C. for 3.0 h, and the change in purity of compound 1-1a was detected by LC-MS.
The same procedure was used to test the change in purity of compound 1-1b at 40° C. and 120° C.
The compounds of Examples 5-1, 5-2 were atropisomers of each other and had different retention times in the LC-MS spectra, and the tautomerism of the atropisomers could be detected by LC-MS.
Compound 5-1 (1.0 mg) was dissolved in DMSO (1.0 mL), and the reaction solution was heated at 37° C. and 120° C. for 3.0 h, respectively, and the change in purity of compound 5-1 was detected by LC-MS.

| SMILES | pIC50 [1] | Imax [1] | atropisomer stability (change in purity by LC-MS) ([2]; heated at 37° C. for 3.0 h in DMSO) | atropisomer stability (change in purity by LC-MS) ([2]; heated at 120° C. for 3.0 h in dimethyl sulfoxide) |
| --- | --- | --- | --- | --- |
| CC(C)(C#Cc1nc([C@H](Cc2cc(F)cc(F)c2)NC(=O)Cn2nc(C(F)(F)F)c3c2C(F)(F)[C@@H]2C[C@H]32)c(-c2ccc(Cl)c3c(NS(=O)(=O)C4CC4)nn(CC(F)(F)F)c23)c2c1CCC2)S(C)(=O)=O (atropisomer, axis not shown; (aR)) [Example 2, N—((S)-1-((R)-4-(4-chloro-3-(cyclopropylsulfonamide)-1-(2,2,2-trifluoroethyl)-1H-indazol-7-yl)-1-(3-methyl-3-(methylsulfonyl)but-1-yn-1-yl)-6,7-dihydro-5H-cyclopenta[c]pyridin-3-yl)-2-(3,5-difluorophenyl)ethyl)-2-((3bS,4aR)-5,5-difluoro-3-(trifluoromethyl)-3 b,4,4a,5-tetrahydro-1H-cyclopropa[3,4]cyclopenta[1,2-c]pyrazol-1-yl)acetamide] | 7.72 | 100% |  |  |
| CC(C)(C#Cc1nc([C@H](Cc2cc(F)cc(F)c2)NC(=O)Cn2nc(C(F)(F)F)c3c2C(F)(F)[C@@H]2C[C@H]32)c(-c2ccc(Cl)c3c(NS(C)(=O)=O)nn(CC(F)(F)F)c23)c2c1CCC2)S(=O)(=O)C1CC1 (atropisomer, axis not shown; (aR)) [Example 3, N—((S)-1-((R)-4-(4-chloro-3-(methanesulfonamido)-1-(2,2,2-trifluoroethyl)-1H-indazol-7-yl)-1-(3-(cyclopropylsulfonyl)-3-methyl-but-1-yn-1-yl)-6,7-dihydro-5H-cyclopenta[c]pyridin-3-yl)-2-(3,5-difluorophenyl)ethyl)-2-((3bS,4aR)-5,5-difluoro-3-(trifluoromethyl)-3b,4,4a,5-tetrahydro-1H-cyclopropa[3,4]cyclopenta[1,2-c]pyrazol-1-yl)acetamide] | 7.62 | 98% |  |  |
| CC(C)(C#Cc1nc([C@H](Cc2cc(F)cc(F)c2)NC(=O)Cn2nc(C(F)(F)F)c3c2C(F)(F)[C@@H]2C[C@H]32)c(-c2ccc(Cl)c3c(NS(=O)(=O)C4CC4)nn(CC(F)(F)F)c23)c2c1CCC2)S(=O)(=O)C1CC1 (atropisomer, axis not shown; (aR)) [Example 4, N—((S)-1-((R)-4-(4-chloro-3-(cyclopropylsulfonamide)-1-(2,2,2-trifluoroethyl)-1H-indazol-7-yl)-1-(3-(cyclopropylsulfonyl)-3-methyl-but-1-yn-1-yl)-6,7-dihydro-5H-cyclopenta [c]pyridin-3-yl)-2-(3,5-difluorophenyl)ethyl)-2-((3bS,4aR)-5,5-difluoro-3-(trifluoromethyl)-3b,4,4a,5-tetrahydro-1H-cyclopropa[3,4]cyclopenta[1,2-c]pyrazol-1-1)acetamide] | 7.17 | 91% |  |  |
| CC(C)(C#Cc1nc([C@H](Cc2cc(F)cc(F)c2)NC(=O)Cn2nc(C(F)(F)F)c3c2C(F)(F)[C@@H]2C[C@H]32)c(-c2ccc(Cl)c3c(NS(C)(=O)=O)nn(CC(F)(F)F)c23)c2ccccc12)S(C)(=O)=O (atropisomer, axis not shown; (aR)) [Example 6, N—((S)-1-((R)-4-(4-chloro-3-(methanesulfonamido)-1-(2,2,2-trifluoroethyl)-1H-indazol-7-yl)-1-(3-methyl-3-(methanesulfonyl)but-1-yn-1-yl)isoquinolin-3-yl)-2-(3,5-difluorophenyl)ethyl)-2-((3bS,4aR)-5,5-difluoro-3-(trifluoromethyl)-3b,4,4a,5-tetrahydro-1H-cyclopropa[3,4]cyclopenta[1,2-c]pyrazol-1-yl)acetamide] | 6.97 | 75% |  |  |
| CC(C)(C#Cc1nc([C@H](Cc2cc(F)cc(F)c2)NC(=O)Cn2nc(C(F)(F)F)c3c2C(F)(F)[C@@H]2C[C@H]32)c(-c2ccc(Cl)c3c(NS(C)(=O)=O)nn(CC(F)(F)F)c23)c2c1CCCC2)S(C)(=O)=O (single isomer, unassigned) [Example 5-1] | 7.43 | 108% | stable single-configuration compound | stable single-configuration compound |
